Active and inactive are the calls of the source.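 Rule for the calls: active = fitted half-maximal concentration for changing reporter fluorescence at or below a set limit; inactive = the rest.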
What follows are compounds tested against Citrate synthase, peroxisomal (Saccharomyces cerevisiae (strain ATCC 204508 / S288c)) (UniProt P08679) (assay: yeast TOR pathway CIT2-GFP reporter potency – flow cytometry, MLPCN hits, dose response (AID 2744)). Settings: S. cerevisiae CIT2-GFP strain, 3 h, at 33 µM (top of the series).
Sequence of Citrate synthase, peroxisomal (Saccharomyces cerevisiae (strain ATCC 204508 / S288c)) (P08679 whole entry, looked up): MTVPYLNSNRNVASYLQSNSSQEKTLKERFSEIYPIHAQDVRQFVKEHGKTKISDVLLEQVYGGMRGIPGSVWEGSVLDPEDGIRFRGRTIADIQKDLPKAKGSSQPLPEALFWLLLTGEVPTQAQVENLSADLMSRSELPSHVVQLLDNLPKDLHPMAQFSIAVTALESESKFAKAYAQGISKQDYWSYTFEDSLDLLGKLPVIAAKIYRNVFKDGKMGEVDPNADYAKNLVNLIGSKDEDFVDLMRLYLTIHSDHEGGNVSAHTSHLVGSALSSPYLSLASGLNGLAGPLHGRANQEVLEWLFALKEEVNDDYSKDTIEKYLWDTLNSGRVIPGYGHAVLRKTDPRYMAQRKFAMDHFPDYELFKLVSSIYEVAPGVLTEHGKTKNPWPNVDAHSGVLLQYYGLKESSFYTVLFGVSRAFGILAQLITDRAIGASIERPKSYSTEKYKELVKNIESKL

Row | SMILES | GFP fluorescence, higher = induction
1 | O=C(/C=C/c1ccccn1)c1ccc(Br)cc1O | inactive
2 | Cc1cc(O)c(C(=O)/C=C/c2c(F)c(F)c(F)c(F)c2F)c(=O)o1 | inactive
3 | CCOC(=O)C(C(=O)OCC)C(C(=O)OCC)N1CCOCC1 (configuration not stated) | inactive
4 | CC(=O)c1ccc(N2CCN(C(=O)c3ccc(Br)cc3)CC2)c(F)c1 | inactive
5 | Oc1c(CN2CCN(c3ccc(F)cc3)CC2)cc(Cl)c2cccnc12 | inactive
6 | O=c1oc2ccccc2c(O)c1[C@H]1c2ccc(O)cc2Oc2c1c(=O)oc1ccccc21 | inactive
7 | O=C(O)/C=C/C(=O)c1ccc2c(c1)CCc1ccccc1-2 | inactive
8 | Cc1ccc(C(=O)Oc2oc(-c3ccco3)nc2C=Nc2ccc(Cl)cc2)cc1 | inactive
9 | O=S(=O)(/N=C(\Sc1ccc(Cl)cc1)c1ccccc1)c1ccccc1 | inactive
10 | O=C1C=C(c2ccc(Cl)cc2)C(=O)N1Nc1ccccc1 | inactive
11 | N/C(Cc1ccc(Cl)cc1Cl)=N\OC(=O)c1ccccc1 | inactive
12 | CC(C)[C@@]1(c2ccccc2)ON(c2ccccc2C(F)(F)F)C1=O | inactive
13 | CCN(CC)c1ccc2cc(-c3nc(-c4ccc(OC)cc4)cs3)c(=O)oc2c1 | inactive
14 | O=C(O)c1cccc(S(=O)(=O)Nc2ccc(S(=O)(=O)N3CCOCC3)cc2)c1 | inactive
15 | CC1(c2ccccc2)ON(c2ccccc2C(F)(F)F)C1=O (configuration not stated) | inactive
16 | COc1ccc(N=Nc2ccc(O)c3ncccc23)cc1 | inactive
17 | C[C@@]12C(=O)OC(=O)[C@]1(C)C1CCC2O1 | inactive
18 | CC(C)(C)n1nc(-c2ccc(Cl)cc2)c2c(N)ncnc21 | inactive
19 | Cc1[nH][nH]c(=O)c1C(c1ccc(-c2ccc(Cl)cc2)o1)c1c(C)[nH][nH]c1=O | inactive
20 | COc1cccc(/C=C2\C(=O)N(c3cccc(C)c3)C(=O)c3ccccc32)c1 | inactive
21 | COc1ccccc1-c1nc2s/c(=C\c3cccs3)c(=O)n2n1 | inactive
22 | Cc1ccc(-c2nc(N)c3c(-c4ccc(C)cc4)nn(C(C)(C)C)c3n2)cc1 | inactive
23 | Cc1ccc(NC(=O)c2cc(N3C(=O)C=CC3=O)ccc2N2CCOCC2)cc1Cl | inactive
24 | Cc1ccc(S(=O)(=O)Cc2cc(F)c([N+](=O)[O-])cc2[N+](=O)[O-])cc1 | inactive

Row | SMILES | GFP fluorescence, higher = induction
25 | O=[N+]([O-])c1ccc(N=Nc2c(Cl)cc(O)cc2Cl)cc1 | inactive
26 | COc1ccc(C(=O)/C=C2/C(=O)Nc3ccccc32)cc1 | inactive
27 | Cc1ccc2[nH]cc(/C=C/c3cc[n+](C)cc3)c2c1 | inactive
28 | CC(C)(C)c1ccc(NC(=O)COC(=O)c2ccc([N+](=O)[O-])s2)cc1 | inactive
29 | CN(O)/C=c1/ccc2c(n1)C(=O)C=CC=2 | inactive
30 | COc1cccc(/C=N/Nc2ncc(C(F)(F)F)cc2Cl)c1O | inactive
31 | CCc1ccc2c(c1)/C(=C/C(=O)c1cccs1)C(=O)N2 | inactive
32 | O=C1N(c2ccccc2C(F)(F)F)O[C@@]1(c1ccccc1)C1CCCC1 | inactive
33 | C=CCN1C(=O)/C(=C/c2ccc(-c3ccc(F)cc3)o2)SC1=S | inactive
34 | O=C(Nc1ccc(NC(=O)c2cc3ccccc3o2)cc1)c1ccc2c(c1)OCCO2 | inactive
35 | CC1=C/C(=N\OS(=O)(=O)c2ccccc2)C(C(C)C)=CC1=O | inactive
36 | C/C(=N\NC(=O)c1cccc(Br)c1)c1ccccn1 | inactive
37 | O=[N+]([O-])c1ccc(S(=O)(=O)c2cccc(C(F)(F)F)c2)nc1 | inactive
38 | O=C(NC(=S)NNC(=O)[C@H]1C[C@@H]1c1ccccc1)c1cccc(F)c1 | inactive
39 | CCc1cc(C(=O)Nc2nc(-c3ccccn3)cs2)sc1C | inactive
40 | CC(C)[C@@]1(c2ccc(Cl)cc2)ON(c2ccccc2C(F)(F)F)C1=O | inactive
41 | Clc1ccc(N=c2ssnc2Cl)cc1 | inactive
42 | CCOC(=O)c1c(C)oc2c1c(C(c1cccnc1)N1CCOCC1)c(O)c1ccccc12 (configuration not stated) | inactive
43 | Cc1cc(C)c(S(=O)(=O)N2CCC(C(=O)NCc3ccc(Cl)cc3Cl)CC2)c(C)c1 | inactive
44 | CC(C)[C@]1(c2ccccc2)ON(c2ccccc2C(F)(F)F)C1=O | inactive
45 | CCN(CC)c1ccc(/C=C2\C(=O)c3ccc(C(=O)O)cc3C2=O)cc1 | inactive
46 | O=[N+]([O-])c1cnc(Sc2ccncn2)s1 | inactive
47 | Oc1cc(-c2ccc(N3CCCCC3)nc2)cc2cccnc12 | inactive

Reference: PubChem BioAssay AID2744 (NMMLSC, 2010)
